Experiments:
Assay in all cases: relative viability (nuclei count vs DMSO), 5 days (fraction); higher = more cells survive
Bleomycin + Palbociclib = compound: CC1=C(N=C(N=C1N)[C@H](CC(=O)N)NC[C@@H](C(=O)N)N)C(=O)N[C@@H]([C@H](C2=CN=CN2)OC3C(C(C(C(O3)CO)O)O)OC4C(C(C(C(O4)CO)O)OC(=O)N)O)C(=O)N[C@H](C)[C@H]([C@H](C)C(=O)N[C@@H]([C@@H](C)O)C(=O)NCCC5=NC(=CS5)C6=NC(=CS6)C(=O)NCCC[S+](C)C)O [Bleomycin] + CC(=O)c1c(C)c2cnc(Nc3ccc(N4CCNCC4)cn3)nc2n(C2CCCC2)c1=O [Palbociclib] (partner 0.5 µM); settings: main component drawn
How it was run: (§1)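 Each reported value is a median over duplicate plates. It expresses relative viability: treated-well nuclei count divided by vehicle-well nuclei count. Lung cancer cell lines in 1536-well plates were dosed by pin tool a day after seeding, alone with one drug or with a fixed anchor-drug dose plus five library-drug doses (not always all listed) in √10 steps, and nuclei were counted after 5 days.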

Bleomycin + Navitoclax = compound: CC1=C(N=C(N=C1N)[C@H](CC(=O)N)NC[C@@H](C(=O)N)N)C(=O)N[C@@H]([C@H](C2=CN=CN2)OC3C(C(C(C(O3)CO)O)O)OC4C(C(C(C(O4)CO)O)OC(=O)N)O)C(=O)N[C@H](C)[C@H]([C@H](C)C(=O)N[C@@H]([C@@H](C)O)C(=O)NCCC5=NC(=CS5)C6=NC(=CS6)C(=O)NCCC[S+](C)C)O [Bleomycin] + CC1(C)CCC(c2ccc(Cl)cc2)=C(CN2CCN(c3ccc(C(=O)NS(=O)(=O)c4ccc(N[C@H](CCN5CCOCC5)CSc5ccccc5)c(S(=O)(=O)C(F)(F)F)c4)cc3)CC2)C1 [Navitoclax] (partner 0.5 µM); settings: main component drawn
How it was run: as §1

Etoposide + Crizotinib = compound: COc1cc([C@@H]2c3cc4c(cc3[C@@H](O[C@@H]3O[C@@H]5CO[C@@H](C)O[C@H]5[C@H](O)[C@H]3O)[C@H]3COC(=O)[C@H]23)OCO4)cc(OC)c1O [Etoposide] + C[C@@H](Oc1cc(-c2cnn(C3CCNCC3)c2)cnc1N)c1c(Cl)ccc(F)c1Cl [Crizotinib] (partner 1 µM)
How it was run: as §1

Etoposide + Linsitinib = compound: COc1cc([C@@H]2c3cc4c(cc3[C@@H](O[C@@H]3O[C@@H]5CO[C@@H](C)O[C@H]5[C@H](O)[C@H]3O)[C@H]3COC(=O)[C@H]23)OCO4)cc(OC)c1O [Etoposide] + C[C@]1(O)C[C@@H](c2nc(-c3ccc4ccc(-c5ccccc5)nc4c3)c3c(N)nccn32)C1 [Linsitinib] (partner 1 µM)
How it was run: as §1

Cell Line | relative viability (Bleomycin + Palbociclib; first compound 0.01 µM) | relative viability (Bleomycin + Palbociclib; first compound 0.03162 µM) | relative viability (Bleomycin + Palbociclib; first compound 0.1 µM) | relative viability (Bleomycin + Palbociclib; first compound 0.3162 µM) | relative viability (Bleomycin + Palbociclib; first compound 1 µM) | relative viability (Bleomycin + Navitoclax; first compound 0.01 µM) | relative viability (Bleomycin + Navitoclax; first compound 0.03162 µM) | relative viability (Bleomycin + Navitoclax; first compound 0.1 µM) | relative viability (Bleomycin + Navitoclax; first compound 0.3162 µM) | relative viability (Bleomycin + Navitoclax; first compound 1 µM) | relative viability (Etoposide + Crizotinib; first compound 0.01 µM) | relative viability (Etoposide + Crizotinib; first compound 0.03162 µM) | relative viability (Etoposide + Crizotinib; first compound 0.1 µM) | relative viability (Etoposide + Crizotinib; first compound 0.3162 µM) | relative viability (Etoposide + Crizotinib; first compound 1 µM) | relative viability (Etoposide + Linsitinib; first compound 0.01 µM) | relative viability (Etoposide + Linsitinib; first compound 0.03162 µM) | relative viability (Etoposide + Linsitinib; first compound 0.1 µM) | relative viability (Etoposide + Linsitinib; first compound 0.3162 µM) | relative viability (Etoposide + Linsitinib; first compound 1 µM)
NCI-H1648 | 0.217 | 0.32 | 0.27 | 0.27 | 0.245 | – | – | – | – | – | – | – | – | – | – | – | – | – | – | –
NCI-H1650 | 0.215 | 0.222 | 0.153 | 0.176 | 0.191 | 0.394 | 0.429 | 0.212 | 0.148 | 0.211 | 0.874 | 0.776 | 0.634 | 0.253 | 0.16 | – | – | – | – | –
NCI-H1703 | – | – | – | – | – | 1.05 | 1.11 | 0.531 | 0.278 | 0.203 | – | 0.521 | 0.584 | 0.501 | 0.162 | 0.672 | 1.04 | 0.642 | 0.641 | 0.329
NCI-H1793 | 0.316 | 0.302 | 0.313 | 0.216 | 0.19 | 0.355 | 0.404 | 0.298 | 0.177 | 0.163 | – | – | – | – | – | 0.692 | 0.989 | – | 0.716 | 0.429
NCI-H2170 | 0.328 | 0.342 | 0.307 | 0.274 | 0.259 | 0.503 | 0.555 | 0.578 | 0.414 | 0.377 | 1.06 | 1.21 | – | 1 | 0.851 | – | – | – | – | –
NCI-H2342 | 0.553 | 0.546 | 0.519 | 0.488 | 0.433 | – | – | – | – | – | – | – | – | – | – | – | – | – | – | –
SW 900 | 0.502 | 0.503 | 0.355 | 0.214 | 0.222 | – | – | – | – | – | – | – | – | – | – | – | – | – | – | –

Source: the supplement of paper PMC10307832
